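Assay format: 96-well plates, 48-hour exposure. TGI: total growth inhibition.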
Tests used:
Experiment in all cases: growth of human tumour cells (NCI), 48 h
[1] = system: DU-145 prostate
[2] = system: RXF 393 renal
[3] = system: NCI-H226 lung
[4] = system: COLO 205 colon
[5] = system: HCT-15 colon
[6] = system: RPMI-8226 leukemia
[7] = system: MDA-MB-435
[8] = system: U251 CNS
[9] = system: LOX IMVI melanoma
[10] = system: HOP-92 NSCLC
[11] = system: HT29 colon
[12] = system: 786-0 renal
[13] = system: HS 578T breast
[14] = system: SF-268 CNS
[15] = system: ACHN renal
[16] = system: NCI-H23 lung
[17] = system: OVCAR-3 ovarian
[18] = system: SR leukemia
[19] = system: A498 renal

| Structure (SMILES) | TGI [1] [µM] | TGI [2] [µM] | TGI [3] [µM] | TGI [4] [µM] | TGI [5] [µM] | TGI [6] [µM] | TGI [7] [µM] | TGI [8] [µM] | TGI [9] [µM] | TGI [10] [µM] | TGI [11] [µM] | TGI [12] [µM] | TGI [13] [µM] | TGI [14] [µM] | TGI [15] [µM] | TGI [16] [µM] | TGI [17] [µM] | TGI [18] [µM] | TGI [19] [µM] |
| --- | --- | --- | --- | --- | --- | --- | --- | --- | --- | --- | --- | --- | --- | --- | --- | --- | --- | --- | --- |
| O=C1NC(=S)NC(=O)C1=Cc1ccc(-c2ccccc2)cc1 | > 100 | > 100 | > 100 | > 100 | > 100 | > 100 | > 100 | > 100 | > 100 | > 100 | > 100 | > 100 | > 100 | > 100 | > 100 | > 100 | > 100 |  |  |
| O=C(O)C1CCCCN1C(=O)Cc1c[nH]c2ccccc12 (configuration not stated) | > 100 | > 100 | > 100 | > 100 | > 100 | > 100 | > 100 | > 100 | > 100 | > 100 | > 100 | > 100 |  | > 100 | > 100 | > 100 | > 100 |  |  |
| COc1ccccc1-n1c(N)c2c(C)c(-c3ccccc3)[nH]c2nc1=S |  |  | > 100 | > 100 | > 100 | > 100 |  | > 100 | > 100 | > 100 |  | > 100 |  |  | > 100 | > 100 | > 100 | > 100 | > 100 |
| CCO/C(O)=C(/C(=N)N1CCCC1)C(=O)Nc1cccc(Cl)c1 | > 100 | > 100 | > 100 | > 100 | > 100 | > 100 | > 100 | > 100 | > 100 |  | > 100 | > 100 | > 100 | > 100 | > 100 | > 100 | > 100 |  | > 100 |
| CC1(C)OCN(c2ccc(S(N)(=O)=O)cc2)Cn2c1nc1ccccc12 |  | > 100 | > 100 | > 100 | > 100 | > 100 |  | > 100 | > 100 | > 100 | > 100 | > 100 |  | > 100 | > 100 | > 100 | > 100 | > 100 | > 100 |
| COc1cc(OC)c2c(=O)c3c([N+](=O)[O-])cccc3n(C)c2c1 |  | > 100 | > 100 | > 100 | > 100 | > 100 |  | > 100 | > 100 | > 100 | > 100 | > 100 |  | > 100 | > 100 | > 100 | > 100 | > 100 | > 100 |
| C/C(=N\NC(=S)NC(CCC(=O)O)C(=O)O)c1cnccn1 (configuration not stated) |  | > 100 | > 100 | > 100 | > 100 | > 100 |  | > 100 | > 100 | > 100 | > 100 | > 100 |  | > 100 | > 100 | > 100 | > 100 | > 100 | > 100 |
| COC(=O)n1c(C)c(C=O)c2ccc(OC)cc21 | > 100 | > 100 |  | > 100 | 82.7 |  | 47.2 |  | 84.5 |  | > 100 | > 100 |  |  | > 100 | 89.7 | > 100 | > 100 |  |
| CCOc1ccc(/C=C(\Cl)c2ccc(OC)cc2)cc1 |  | > 100 | > 100 | > 100 | > 100 | > 100 |  | > 100 |  | > 100 | > 100 | > 100 |  | > 100 | > 100 | > 100 |  | > 100 | > 100 |
| CCCCCCNC(=S)N/N=C(\C)c1ccccn1 | 30.4 | 12.5 | 6.28 | 18.2 | 21.9 | 9.31 | 17.8 | 14.2 | 12.3 | 2.25 | 19.4 | 12.1 | > 100 | 17.8 | 10 | 18.8 | 21.8 |  | 14.4 |
| COc1cc(C2c3cc4c(cc3OC(NCCc3ccccc3)C2C)OCO4)cc(OC)c1OC (configuration not stated) | > 100 |  | 7.43 | 0.605 | > 40.9 | 14.7 | 2.18 | 14.7 | 15.6 | 63.3 | 11.1 | 18.1 | 0.425 | > 39.3 | > 51.8 | > 20.9 |  |  |  |
| CC(C)CC(NP(=O)(O)OC1OC(C)C(O)C(O)C1O)C(=O)NC(Cc1c[nH]c2ccccc12)C(=O)O (configuration not stated) | > 100 |  | > 100 | > 100 | > 100 | > 100 | > 100 | > 100 |  | > 100 | > 100 | > 100 | > 100 | > 100 |  | > 100 | > 100 |  | > 100 |
| CCN(CC)c1ccc(C2Nc3ccc4ccccc4c3C3=C2C(=O)CCC3)cc1 (configuration not stated) | 62.8 | 59.1 | > 100 | > 100 | > 100 | > 100 | > 100 | 33 |  |  | > 100 | 76.8 | 34.4 | > 100 | 33.6 | > 100 | > 100 |  | > 100 |
| CCN1CCN(c2nc3ccccc3nc2C(=O)c2ccc(OC)c(OC)c2)CC1 | > 100 | 29.8 | > 100 | 2.91 | 28.8 | 35.8 | 90.6 | 30.2 | 26.2 | 70.2 | 39.4 | 25.7 |  | > 100 | 26.8 | 98.4 | 60.6 | 24.4 | > 100 |
| O=C(Cc1ccc([N+](=O)[O-])c([N+](=O)[O-])c1CC(=O)C(=O)Nc1cc(Cl)ccc1Cl)C(=O)Nc1cc(Cl)ccc1Cl |  | 94.7 | > 100 | 52.5 | 45.1 | > 100 |  | 70.1 | 65.9 | > 100 | > 100 | > 100 |  | > 100 | > 100 | > 100 | > 100 | > 100 | > 100 |
| Oc1cc(CN2CCOCCOCCOCCOCC2)c(O)cc1CN1CCOCCOCCOCCOCC1 |  | 60.5 | > 85 | 39.6 | > 67.4 | 63.8 |  | > 56.8 | 66.4 | 49.7 | > 73.3 | 58.5 |  | 96.8 | > 59.2 | > 100 | > 100 | 43.8 | > 100 |
| CC/C(=N/O)c1ccc2[nH]c3c(C)cc([N+](=O)[O-])c(C)c3c2c1 |  |  | > 100 | > 100 | > 100 | > 100 |  |  | > 100 |  | > 100 | > 100 |  | > 100 | > 100 | > 100 | > 100 | > 100 |  |
| Cc1cc(S(=O)(=O)NC2=NCCN2Cc2ccccc2)c(S)cc1Cl | > 100 |  | > 100 | > 100 | > 100 | > 100 | > 100 | > 100 | > 100 |  | > 100 | > 100 |  | > 100 | > 100 | > 100 | > 100 |  |  |
| COC(=O)c1cc(NC(=O)c2cc(NC(=O)Cc3c[nH]c4ccccc34)cn2C)cn1C | > 100 | > 100 | > 100 | 76.3 | > 100 | 48.4 | > 100 |  | > 100 |  | 55.8 | > 100 |  | > 100 | > 100 | 83.5 | > 100 |  | 78.5 |
| CN(C)/C=N\c1nncc2[nH]cnc12 |  |  | > 100 | > 100 | > 100 | > 100 | > 100 | > 100 | > 100 | > 100 | > 100 | > 100 |  |  | > 100 | > 100 | > 100 |  | > 100 |
| N/C(=N\N=C\c1cc(I)cc(I)c1O)NO | > 100 | > 100 | 44.5 | > 100 | > 100 |  | > 100 | > 100 | > 100 |  | > 100 | > 100 | > 100 | > 100 | 74.1 | 79.3 | 14.6 |  | > 100 |
| COc1ccccc1-n1c(NN)nc2ccc(Br)cc2c1=O |  | > 100 | > 100 | > 100 | > 100 | > 100 |  | > 100 | > 100 |  | > 100 | > 100 |  | > 100 | > 100 | > 100 | > 100 | > 100 |  |
| Cc1ccc(NC(=O)CSc2nnc(Cc3ccccc3)o2)cc1 |  | > 100 | > 100 | > 100 | > 100 | > 100 |  | > 100 | > 100 |  | > 100 | > 100 |  | > 100 | > 100 | > 100 | > 100 |  | > 100 |
| C[C@@H]1O[C@]2(O)[C@@H]3CCCN3S(=O)(=O)CCN2C1=O |  | > 100 | > 100 | > 100 | > 100 | > 100 |  | > 100 | > 100 | > 100 | > 100 | > 100 |  | > 100 | > 100 | > 100 | > 100 | > 100 | > 100 |
| CCOC(=O)CCC(NC(=O)c1ccc(N=Cc2nc3ccccc3nc2-c2ccccc2)cc1)C(=O)OCC (configuration not stated) |  | > 100 | > 100 | > 100 | > 100 | > 100 |  | > 100 | > 100 | > 100 | > 100 | > 100 |  | > 100 | > 100 | > 100 | > 100 | > 100 | > 100 |
| O=C(/C=C1\N=C(c2ccccc2)N(c2nc3c(Cl)cc(Cl)cc3s2)C1=O)/C=C/c1ccccc1 | > 100 | > 100 |  | > 100 | > 100 | > 100 | > 100 | > 100 | > 100 | > 100 | > 100 | > 100 | > 100 | > 100 | > 100 | > 100 | > 100 |  | > 100 |
| CCCCCCSCC/C(C)=N\OC | > 100 | > 100 | > 100 | > 100 | > 100 | > 100 | > 100 | > 100 | > 100 | > 100 | > 100 | > 100 |  | > 100 | > 100 | > 100 | > 100 |  | > 100 |
| C[C@@]1(Cc2ccccc2)C(=O)N2[C@@H](CO)C(c3ccccc3)O[C@]2(C)c2ccccc21 (some centres not stated) |  | > 100 | > 100 | > 100 | > 100 | > 100 |  | > 100 | > 100 | > 100 |  | > 100 |  | > 100 | > 100 | > 100 | > 100 | > 100 |  |
| CCCCNC(=NCc1ccccc1)NC#N |  |  | > 100 | > 100 | > 100 | > 100 |  | > 100 | > 100 | > 100 | > 100 | > 100 |  | > 100 | > 100 | > 100 | > 100 | > 100 | > 100 |
| O=C(O)C(O)C(O)C(O)C(O)C(=O)O (configuration not stated) | > 100 | > 100 | > 100 | > 100 | > 100 |  | > 100 | > 100 | > 100 | > 100 | > 100 | > 100 |  | > 100 | > 100 | > 100 | > 100 | > 100 | > 100 |

— PubChem BioAssay (NCI)
